The text below walks through data of patent US11484557B2, “Human-derived Lactobacillus fermentum MG4231 or Lactobacillus fermentum MG4244 strain having anti-obesity activity, and composition comprising same” (MEDIOGEN CO., LTD., priority 2018, dated 2022).

The subject of this assay is 3T3-L1 preadipocytes. Kind of assay: Inhibition of preadipocyte differentiation, Oil Red O lipid accumulation. The following applies: positive control, 100 μM baicalin. Type of assay: cell-based. As to the method: In order to select a strain having excellent obesity prevention and treatment effects among the strains obtained in the Example 1, an experiment was conducted to identify the ability thereof to inhibit differentiation of preadipocytes into adipocytes. To induce the differentiation of 3T3-L1 preadipocytes, the preadipocytes were dispensed into each 96-well plate at 1.25×10^5 cells/well. After 2 days, the medium was changed so that the cells were completely fused on the 4th day. MDI (0.5 mM 3-isobutyl-1-methylxanthine), 1 μM dexamethasone and 1 μg/mL of insulin solution added to 10% FBS DMEM medium. Subsequently, in the experimental group, the culture supernatant of the strain obtained in Example 1 was added to the medium at a concentration of 1,000 μg/mL. […] Adipocyte differentiation was completed after 6 days, and the amount of lipid accumulated in the cell was measured using Oil Red 0 (Sigma, USA), which reacts specifically with the lipid drop generated in the cell. […] For quantification, distilled water was removed, isopropyl alcohol was added to a completely dry well, and then, absorbance was measured at 520 nm. Then, a degree of inhibition of adipocyte differentiation ability was analyzed by comparing the produced lipid drop content with that of the MDI treatment group based on the measured absorbance.

`O=C(O)[C@H]1O[C@@H](Oc2cc3oc(-c4ccccc4)cc(=O)c3c(O)c2O)[C@H](O)[C@@H](O)[C@@H]1O` [baicalin] gave a relative lipid content of 81.40%.
